Assays:
NMRI-Mäusen = assay: CNS tolerability in the healthy animal (mouse), behavioural observation; format: in vivo, Maus; conditions: for Symptome: phenomena observed 3 hours after application; for Dosis, ab der eine ZNS erregende Aktivität, die als unverträglich gilt, auftritt: mouse, i.p., dose from which the behaviour-altering CNS excitation is seen
Protocol: Adulten männlichen NMRI-Mäusen werden die zu untersuchenden Substanzen in Dosen von 0,1-100 mg/kg i.p. in einem Volumen von 10 ml/kg verabreicht. Pro Versuchsdosis werden drei Tiere eingesetzt, wobei eine Gruppe als Placebo nur mit dem Lösungsmittel behandelt (Kontrolle) mitgeführt wird.
Die Placebogruppe dient dabei zur zeitgleichen Verhaltensfeststellung, parallel zur Versuchsgruppe. Sofort nach der Applikation werden die Tiere in Dreiergruppen in Beobachtungskäfige gesetzt und drei Stunden lang am ersten Tag beobachtet. Anschließend werden die Tiere gefüttert, getränkt und weitere sechs Tage, jeweils nach 24 Stunden, für eine halbe Stunde beobachtet. Dabei ergaben sich folgende Befunde: Tabelle 2

Mongolischen Gerbil = assay: Neuroprotection after forebrain ischaemia in the gerbil (5-minute bilateral carotid artery occlusion); format: in vivo; conditions: treated vs. control group; for Verhaltensscore (% Änderung): 5-step neurological score over 45 min after ischaemia; for Zellnekrosen (% Änderung): 5-step histopathological score, hippocampal CA₁ region, 7 days later
From the text: Anhand der nachfolgend beschriebenen Versuchsdurchführungen (K. Rudolphi et. al, J. Cereb. Blood Flow Metab., 7:74. 1987) ergibt sich, daß die unten aufgeführten Verbindungen in der Lage sind, zerebrale Nervenzellen gegen eine schwere ischämische Schädigung zu schützen.
Bei 20 männlichen Mongolischen Gerbils werden unter Halothan-Narkose durch beidseitigen Verschluß der A. Carotis mittels Aneurysmaclips eine 5-minütige Ischämie des Vorderhirns mit anschließender Rezirkulation erzeugt. Die Tiere werden 45 Minuten lang nach der Ischämie beobachtet und das Ausmaß der neurologischen Symptome mittels eines 5-stufigen Verhaltensscores bestimmt. 7 Tage später werden die Tiere unter Halothan-Narkose dekapitiert, die Gehirne in Carnoy-Lösung immersionsfixiert und das Ausmaß des Neuronenschadens in der CA₁-Region des Hippocampus mit Hilfe eines 5-stufigen histopathologischen Scores "blind" bestimmt. Die Prüfsubstanzen werden je einer Gruppe von 10 Gerbils intraperitoneal oder per os 15 Minuten vor der Ischämie verabreicht. Pro Testsubstanz wird eine ischämische Kontrollgruppe von ebenfalls 10 Tieren mit dem jeweiligen Lösungsmittel behandelt. Die Ergebnisse sind in Tabelle 6 als % Änderung des mittleren neurologsichen Verhaltensscores bzw. histopathologischen Scores (Summe der individuellen Scores/Anzahl der Tiere) der behandelten vs. Kontrollgruppe zusammengefaßt. Tabelle 1
Je höher der Verhaltensscore (-% Änderungen), desto besser ist die Erholung der Tiere nach Ischämie.

[1] = 30 mg/kg ip. 15 min before 5-min forebrain ischaemia
[2] = 30 mg/kg ip. 15 min before ischaemia

| SMILES | Symptome (NMRI-Mäusen; dose 0,1-3 mg/kg i.p.) | Symptome (NMRI-Mäusen; dose 1,0-3,0 mg/kg i.p.) | Symptome (NMRI-Mäusen; dose 10-100 mg/kg i.p.) | Dosis, ab der eine ZNS erregende Aktivität, die als unverträglich gilt, auftritt (NMRI-Mäusen) | Verhaltensscore (% Änderung) (Mongolischen Gerbil; [1]) | Zellnekrosen (% Änderung) (Mongolischen Gerbil; [2]) | Symptome (NMRI-Mäusen; dose 0,1-0,3 mg/kg i.p.) | Dosis, ab der eine ZNS erregende Aktivität, die als unverträglich gilt, auftritt (NMRI-Mäusen; listed as (+)-Form) | Symptome (NMRI-Mäusen; dose 0,01-0,3 mg/kg i.p.) | Dosis, ab der eine ZNS erregende Aktivität, die als unverträglich gilt, auftritt (NMRI-Mäusen; listed as (-)-Form) | Verhaltensscore (% Änderung) (Mongolischen Gerbil; 60 mg/kg ip. 15 min before 5-min forebrain ischaemia) | Zellnekrosen (% Änderung) (Mongolischen Gerbil; 60 mg/kg ip. 15 min before ischaemia) |
| --- | --- | --- | --- | --- | --- | --- | --- | --- | --- | --- | --- | --- |
| CNC(Cc1ccccc1N)c1sccc1C (racemic) [Razemisch II, 2-Amino-N-methyl-α-(3-methyl-2-thienyl)benzylethanamin] | vermehrter Putztrieb | Unruhe, Erregung, vermehrter Putztrieb | Taumeln, vermehrter Putztrieb, Unruhe, Erregung | ≥ 10 mg/kg i. p. | -15 % Änderung | -75 % Änderung | – | – | – | – | – | – |
| CNC(Cc1ccccc1N)c1sccc1C (single isomer, unassigned; (+)) [(+)II, 2-Amino-N-methyl-α-(3-methyl-2-thienyl)benzylethanamin] | – | kurzandauernde Erregung | vermehrter Putztrieb, Unruhe, Erregung, Taumeln | – | -51 % Änderung | -90 % Änderung | o. B. | ≥ 10 mg/kg i. p. | – | – | – | – |
| CNC(Cc1ccccc1N)c1sccc1C (single isomer, unassigned; (-)) [(-)II, 2-Amino-N-methyl-α-(3-methyl-2-thienyl)benzylethanamin] | – | o. B. | Unruhe, vermehrter Putztrieb | – | -32 % Änderung | – | – | – | o. B. | ≥ 100 mg/kg i. p. | -75 % Änderung | -23 % Änderung |
